In brackets after ≈: the same amount, converted by molar mass. Entries after “also recorded” stand apart in the source; their conditions may differ. Like-named read-outs stand apart in the source and are kept apart here.

Data set [1] concerns E. coli ATCC 25922. Description: SYTOX Green uptake assay. It counts as cell-based. The conditions noted are these: any of the concentrations tested; melittin as positive control.
In data set [2] the test system is E. coli W3310ΔmscL::Kan, E. coli K12 W3310ΔmscS, E. coli W3310. The class given is cell-based. As to conditions: comparison between knock-out and WT strains.
A further data set concerns M. tuberculosis H37Rv. Briefly: Microplate alamar blue assay. The conditions noted are these: Mycobacterium tuberculosis. The class given is cell-based. On the technique in general: Resazurin is reduced to fluorescent resorufin, in cell work by metabolically active cells.
For another data set, the system named is M. abscessus L948. Briefly: MABA assay in M. abscessus. It counts as cell-based. As to conditions: for IC50: Mycobacteroides abscessus, L948, read-out: Half-Maximal Inhibitory Concentration (IC50, μM) M. abscessus L948 MABA.
The test system of a further data set is P. aeruginosa PAO1. Briefly: Broth microdilution susceptibility testing. It counts as cell-based. As to conditions: Pseudomonas aeruginosa, PAO1, read-out: Minimum Inhibitory Concentration (MIC90) P. aeruginosa PAO1 − Thy. In general terms: In broth dilution the organism is exposed to a series of concentrations in liquid medium.
For a further data set, the system named is S. aureus. Briefly: Kirby-Bauer agar diffusion assay. It counts as cell-based. As to conditions: both tested strains of S. aureus. A general note: Agar diffusion results depend on both activity and mobility in agar.
The next data set deals with SaDHFR (Staphylococcus aureus, UniProt P0A017). It counts as biochemical. As to conditions: apparent IC50; purified S. aureus DHFR.
Chain of SaDHFR (P0A017 whole entry, the tested form may be a part): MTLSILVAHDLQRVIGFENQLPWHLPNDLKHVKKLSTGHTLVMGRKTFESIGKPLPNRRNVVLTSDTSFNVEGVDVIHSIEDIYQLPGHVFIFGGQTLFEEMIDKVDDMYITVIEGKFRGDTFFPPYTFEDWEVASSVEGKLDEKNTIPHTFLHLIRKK
For the next data set, the system named is Micrococcus luteus. Briefly: Kirby-Bauer agar diffusion assay. The class given is cell-based.
For another data set, the system named is Bacillus subtilis. Briefly: Kirby-Bauer agar diffusion assay. It counts as cell-based.
For data set [3], the system named is E. coli ATCC 25922. Briefly: Broth microdilution susceptibility testing. It counts as cell-based. The conditions noted are these: Escherichia coli, ATCC25922, read-out: Minimum Inhibitory Concentration (MIC90) E. coli ATCC 25922 − Thy.
For the next data set, the system named is S. aureus ATCC 11632. Description: Broth microdilution susceptibility testing. As to conditions: Staphylococcus aureus, ATCC11632, read-out: Minimum Inhibitory Concentration (MIC90) S. aureus ATCC 11632 − Thy. The class given is cell-based.
Where [4] appears, read: read-out: Minimum Inhibitory Concentration (MIC90, μM) M. tuberculosis H37Rv MABA: 7H12 Media.
[5] abbreviates: read-out: Minimum Inhibitory Concentration (MIC90, μM) M. tuberculosis H37Rv MABA: GAST Media.

Regarding `COc1cc(Cc2cnc(N)nc2N)cc(OC)c1OC` [TMP, trimethoprim], the “SYTOX Green uptake” value in the data set on E. coli ATCC 25922 [1] is reported as “no uptake”. The “MIC values against E. coli ΔmscL, ΔmscS and WT parent strain set” value in data set [2] is given as “no significant differences”.
In the case of `COc1c(N2C[C@@H]3CCCN[C@@H]3C2)c(F)cc2c(=O)c(C(=O)O)cn(C3CC3)c12` [Moxifloxacin], the MIC90 came to 0.43 µM (≈ 0.173 µg/mL) with M. tuberculosis H37Rv (setting [4]) and 0.042 µM (≈ 0.0169 µg/mL) with M. tuberculosis H37Rv (setting [5]).
The corresponding values for `CO[C@H]1/C=C/O[C@@]2(C)Oc3c(C)c(O)c4c(O)c(c(/C=N/N5CCN(C)CC5)c(O)c4c3C2=O)NC(=O)/C(C)=C\C=C\[C@H](C)[C@H](O)[C@@H](C)[C@@H](O)[C@@H](C)[C@H](OC(C)=O)[C@@H]1C` [Rifampicin] are 0.05 µM (≈ 0.0411 µg/mL) and less than 0.016 µM.
With `CC[C@H]1OC(=O)[C@H](C)[C@@H](O[C@H]2C[C@@](C)(OC)[C@@H](O)[C@H](C)O2)[C@H](C)[C@@H](O[C@@H]2O[C@H](C)C[C@H](N(C)C)[C@H]2O)[C@](C)(OC)C[C@@H](C)C(=O)[C@H](C)[C@@H](O)[C@]1(C)O` [Clarithromycin], in the data set with M. abscessus L948, the IC50 is 15.4 µM. Also, in the data set with M. abscessus L948 (plateau from 12.5–200 μM), the “inhibition plateau in M. abscessus MABA” value is ~ 70%.
Take `NNC(=O)c1ccncc1` [Isoniazid]: the MIC90 in the data set on M. tuberculosis H37Rv (setting [4]) worked out at 0.24 µM (≈ 0.0329 µg/mL); in the data set on M. tuberculosis H37Rv (setting [5]), 0.12 µM (≈ 0.0165 µg/mL).
For `CC1(C)N=C(N)N=C(N)N1c1ccc(Cl)cc1` [CYC, cycloguanil], the “Half-Maximal Inhibitory Concentration (IC50, μM) M. abscessus L948 MABA” value in the data set with M. abscessus L948 (MABA) is on record as “no inhibition”. Besides, the IC50 in the data set with M. abscessus L948 was greater than 200 µM. Moreover, the “SYTOX Green uptake” value with E. coli ATCC 25922 [1] is “no uptake”. The MIC90 in the data set with P. aeruginosa PAO1 was greater than 128 µM; in the data set with M. tuberculosis H37Rv (setting [4]), 74.8 µM (≈ 18.8 µg/mL); with M. tuberculosis H37Rv (setting [5]), greater than 100 µM; in the data set on E. coli ATCC 25922 [3] it was greater than 128 µM; in the data set with S. aureus ATCC 11632, greater than 128 µM. Besides, the “MIC values against E. coli ΔmscL, ΔmscS and WT parent strain set” value in data set [2] is listed as “no significant differences”. Also, the “activity in agar diffusion, S. aureus” value in the data set with S. aureus was “no activity”. The hemolysis entry in the data set on human erythrocytes was “no detectable hemolysis”. In addition, at SaDHFR, the “SaDHFR IC50 (μM ± SD)” value was “did not inhibit and nf^a”. Moreover, the “susceptibility / activity in agar diffusion, M. luteus” value in the data set on Micrococcus luteus was “no activity”. For the same compound, the “susceptibility / activity in agar diffusion, B. subtilis” value in the data set with Bacillus subtilis is given as “susceptible; also recorded: low activity”.
For `O=[N+]([O-])c1cn2c(n1)OC[C@@H](OCc1ccc(OC(F)(F)F)cc1)C2` [Pretomanid], the values for the MIC90 in the data set with M. tuberculosis H37Rv (setting [4]) and in the data set on M. tuberculosis H37Rv (setting [5]) were 0.38 µM (≈ 0.137 µg/mL) and 0.51 µM (≈ 0.183 µg/mL), respectively.
As to `[H]/N=C(/N)N[C@H]1[C@H](O)[C@@H](O)[C@H](O[C@@H]2O[C@@H](C)[C@](O)(C=O)[C@H]2O[C@@H]2O[C@@H](CO)[C@H](O)[C@@H](O)[C@@H]2NC)[C@@H](N/C(N)=N\[H])[C@@H]1O` [Streptomycin], the MIC90 came out at 0.21 µM (≈ 0.122 µg/mL) in the data set on M. tuberculosis H37Rv (setting [4]) and 0.27 µM (≈ 0.157 µg/mL) in the data set on M. tuberculosis H37Rv (setting [5]).

For the origin of these results see paper PMC11908892 (ACS infectious diseases, 2025).
